Test results published in ChEMBL document CHEMBL1671654, “In vivo activity of the pyrrolopyrazolyl-substituted oxazolidinone RWJ-416457” (Antimicrob Agents Chemother, 2009).
Active and inactive are the calls of the source. No cut-off for these calls is given here.

Legend:
Staphylococcus aureus [1] = assay: Antibacterial activity against methicillin-susceptible Staphylococcus aureus ATCC 13709 infected in po dosed Swiss Webster mouse administered at 1 to 3 hrs post infection measured after 3 days; assay type: functional; conditions: ATCC 13709, po
Staphylococcus aureus [2] = assay: Antibacterial activity against community-associated methicillin-resistant Staphylococcus aureus OC8525 infected in po dosed Swiss Webster mouse administered at 1 to 3 hrs post infection measured after 3 days; assay type: functional
Streptococcus pneumoniae [3] = assay: Antibacterial activity against penicillin-susceptible Streptococcus pneumoniae ATCC 6301 infected in po dosed Swiss Webster mouse administered at 1 to 3 hrs post infection measured after 3 days; assay type: functional; conditions: ATCC 6301, po
Staphylococcus aureus [4] = assay: Antibacterial activity against methicillin-susceptible Staphylococcus aureus ATCC 13709 infected in sc dosed Swiss Webster mouse administered at 1 to 3 hrs post infection measured after 3 days; assay type: functional; conditions: ATCC 13709, sc
Staphylococcus aureus [5] = assay: Antibacterial activity against community-associated methicillin-resistant Staphylococcus aureus OC8525 infected in sc dosed Swiss Webster mouse administered at 1 to 3 hrs post infection measured after 3 days; assay type: functional
Streptococcus pneumoniae [6] = assay: Antibacterial activity against penicillin-susceptible Streptococcus pneumoniae ATCC 6301 infected in sc dosed Swiss Webster mouse administered at 1 to 3 hrs post infection measured after 3 days; assay type: functional; conditions: ATCC 6301, sc
Staphylococcus aureus [7] = assay: Antibacterial activity against methicillin-susceptible Staphylococcus aureus ATCC 13709 infected in iv dosed Swiss Webster mouse administered at 1 to 3 hrs post infection measured after 3 days; assay type: functional; conditions: ATCC 13709, iv
Staphylococcus aureus [8] = assay: Antibacterial activity against community-associated methicillin-resistant Staphylococcus aureus OC8525 infected in iv dosed Swiss Webster mouse administered at 1 to 3 hrs post infection measured after 3 days; assay type: functional
Streptococcus pneumoniae [9] = assay: Antibacterial activity against penicillin-susceptible Streptococcus pneumoniae ATCC 6301 infected in iv dosed Swiss Webster mouse administered at 1 to 3 hrs post infection measured after 3 days; assay type: functional; conditions: ATCC 6301, iv
Staphylococcus aureus [10] = assay: Bacteriostatic activity against methicillin-susceptible Staphylococcus aureus Smith ATCC 13709 infected in SKH1 mouse upto 320 mg/kg/day, po administered post infection measured after 48 hrs; assay type: functional, organism-based
Streptococcus pneumoniae [11] = assay: Antibacterial activity against penicillin-susceptible Streptococcus pneumoniae ATCC 6301 infected in po dosed CF-1 mouse administered at 24 hrs post infection measured after 48 hrs relative to Linezolid; assay type: functional; conditions: Streptococcus pneumoniae, ATCC 6301, po
[12] = AUC (0 to 24 hrs) in CF-1 mouse at 2 mg/kg, iv; assay type: ADME, organism-based; parameters: time < 24 hr, dose 2 mg/kg, route intravenous; conditions: plasma
[13] = AUC (0 to 24 hrs) in CF-1 mouse at 10 mg/kg, sc; assay type: ADME, organism-based; parameters: time < 24 hr, dose 10 mg/kg, route subcutaneous; conditions: plasma
[14] = AUC (0 to 24 hrs) in CF-1 mouse at 10 mg/kg, po; assay type: ADME, organism-based; parameters: time < 24 hr, dose 10 mg/kg, route oral; conditions: plasma
Mus musculus [15] = assay: fAUC (0 to 24 hrs) in CF-1 mouse at 2 mg/kg, iv; assay type: ADME, organism-based; parameters: dose 2 mg/kg, route intravenous; conditions: in vivo
Mus musculus [16] = assay: fAUC (0 to 24 hrs) in CF-1 mouse at 10 mg/kg, sc; assay type: ADME, organism-based; parameters: dose 10 mg/kg, route subcutaneous; conditions: in vivo
Mus musculus [17] = assay: fAUC (0 to 24 hrs) in CF-1 mouse at 10 mg/kg, po; assay type: ADME, organism-based; parameters: dose 10 mg/kg, route oral; conditions: in vivo
[18] = Cmax in CF-1 mouse at 2 mg/kg, iv; assay type: ADME, organism-based; parameters: dose 2 mg/kg, route intravenous; conditions: in vivo
[19] = Cmax in CF-1 mouse at 10 mg/kg, sc; assay type: ADME, organism-based; parameters: dose 10 mg/kg, route subcutaneous; conditions: in vivo
[20] = Cmax in CF-1 mouse at 10 mg/kg, po; assay type: ADME, organism-based; parameters: dose 10 mg/kg, route oral; conditions: in vivo
Mus musculus [21] = assay: fCmax in CF-1 mouse at 2 mg/kg, iv; assay type: ADME, organism-based; parameters: dose 2 mg/kg, route intravenous; conditions: in vivo
Mus musculus [22] = assay: fCmax in CF-1 mouse at 10 mg/kg, sc; assay type: ADME, organism-based; parameters: dose 10 mg/kg, route subcutaneous; conditions: in vivo
Mus musculus [23] = assay: fCmax in CF-1 mouse at 10 mg/kg, po; assay type: ADME, organism-based; parameters: dose 10 mg/kg, route oral; conditions: in vivo
[24] = Tmax in CF-1 mouse serum at 10 mg/kg, sc; assay type: ADME, organism-based; parameters: dose 10 mg/kg, route subcutaneous
[25] = Tmax in CF-1 mouse serum at 10 mg/kg, po; assay type: ADME, organism-based; parameters: dose 10 mg/kg, route oral
[26] = Half life in CF-1 mouse at 2 mg/kg, iv; assay type: ADME, organism-based; parameters: dose 2 mg/kg, route intravenous; conditions: in vivo
[27] = Half life in CF-1 mouse at 10 mg/kg, sc; assay type: ADME, organism-based; parameters: dose 10 mg/kg, route subcutaneous; conditions: in vivo
[28] = Half life in CF-1 mouse at 10 mg/kg, po; assay type: ADME, organism-based; parameters: dose 10 mg/kg, route oral; conditions: in vivo
[29] = Clearance in CF-1 mouse at 2 mg/kg, iv; assay type: ADME, organism-based; parameters: dose 2 mg/kg, route intravenous; conditions: in vivo
[30] = Apparent oral clearance in CF-1 mouse at 10 mg/kg, sc; assay type: ADME, organism-based; parameters: dose 10 mg/kg, route oral; conditions: in vivo
[31] = Apparent oral clearance in CF-1 mouse at 10 mg/kg, po; assay type: ADME, organism-based; parameters: dose 10 mg/kg, route oral; conditions: in vivo
[32] = Ratio of fAUC (24 hrs) for Methicillin-susceptible Staphylococcus aureus ATCC 13709 infected po dosed mouse to MIC for Methicillin-susceptible Staphylococcus aureus ATCC 1370; assay type: functional
[33] = Ratio of fAUC (24 hrs) for Methicillin-susceptible Staphylococcus aureus ATCC 13709 infected sc dosed mouse to MIC for Methicillin-susceptible Staphylococcus aureus ATCC 1370; assay type: functional
[34] = Ratio of fAUC (24 hrs) for Methicillin-susceptible Staphylococcus aureus ATCC 13709 infected iv dosed mouse to MIC for Methicillin-susceptible Staphylococcus aureus ATCC 1370; assay type: functional
[35] = Ratio of fAUC (24 hrs) for community-associated methicillin-resistant Staphylococcus aureus OC8525 infected po dosed mouse to MIC for community-associated methicillin-resistant Staphylococcus aureus OC8525; assay type: functional
[36] = Ratio of fAUC (24 hrs) for community-associated methicillin-resistant Staphylococcus aureus OC8525 infected sc dosed mouse to MIC for community-associated methicillin-resistant Staphylococcus aureus OC8525; assay type: functional
[37] = Ratio of fAUC (24 hrs) for community-associated methicillin-resistant Staphylococcus aureus OC8525 infected iv dosed mouse to MIC for community-associated methicillin-resistant Staphylococcus aureus OC8525; assay type: functional
[38] = Ratio of fAUC (24 hrs) for penicillin-susceptible Streptococcus pneumoniae ATCC 6301 infected po dosed mouse to MIC for penicillin-susceptible Streptococcus pneumoniae ATCC 6301; assay type: functional
[39] = Ratio of fAUC (24 hrs) for penicillin-susceptible Streptococcus pneumoniae ATCC 6301 infected sc dosed mouse to MIC for penicillin-susceptible Streptococcus pneumoniae ATCC 6301; assay type: functional
[40] = Ratio of fAUC (24 hrs) for penicillin-susceptible Streptococcus pneumoniae ATCC 6301 infected iv dosed mouse to MIC for penicillin-susceptible Streptococcus pneumoniae ATCC 6301; assay type: functional
Staphylococcus aureus [41] = assay: Bacteriostatic activity against methicillin-susceptible Staphylococcus aureus Smith ATCC 13709 infected in SKH1 mouse upto 25 mg/kg/day, sc administered post infection measured after 48 hrs; assay type: functional, organism-based
Staphylococcus aureus [42] = assay: Antibacterial activity against community-associated methicillin-resistant Staphylococcus aureus OC8525 infected in SKH1 mouse assessed as log reduction in CFU/g skin up to 25 mg/kg/day, sc administered post infection measured after 48 hrs; assay type: functional, organism-based

CC(=O)NC[C@H]1CN(c2ccc(N3CCOCC3)c(F)c2)C(=O)O1 [LINEZOLID]
ED50 (Staphylococcus aureus [1]): 6.4 mg/kg/day | ED50 (Staphylococcus aureus [2]): 5.1 mg/kg/day | ED50 (Streptococcus pneumoniae [3]): 14 mg/kg/day | ED50 (Staphylococcus aureus [4]): 7 mg/kg/day | ED50 (Staphylococcus aureus [5]): 3.7 mg/kg/day | ED50 (Streptococcus pneumoniae [6]): 20 mg/kg/day | ED50 (Staphylococcus aureus [7]): 6.3 mg/kg/day | ED50 (Staphylococcus aureus [8]): 8.5 mg/kg/day | ED50 (Streptococcus pneumoniae [9]): > 40 mg/kg/day | Activity (Staphylococcus aureus [10]): Active | ED50 (Streptococcus pneumoniae [11]): ≥ 14 mg/kg/day | AUC(0-t) at 24 h [12]: 2100 ng·h/mL | AUC(0-t) at 24 h [13]: 16000 ng·h/mL | AUC(0-t) at 24 h [14]: 19000 ng·h/mL | fAUC (Mus musculus [15]): 1400 ng·h/mL | fAUC (Mus musculus [16]): 11000 ng·h/mL | fAUC (Mus musculus [17]): 13000 ng·h/mL | Cmax [18]: 3300 ng/mL | Cmax [19]: 11000 ng/mL | Cmax [20]: 8900 ng/mL | fCmax (Mus musculus [21]): 2.3 µg/mL | fCmax (Mus musculus [22]): 7.1 µg/mL | fCmax (Mus musculus [23]): 6 µg/mL | Tmax [24]: ≤ 7.8 min | Tmax [25]: ≤ 7.8 min | half-life [26]: 30 min | half-life [27]: 48 min | half-life [28]: 84 min | clearance [29]: 15.7 mL/min/kg | CL/F [30]: 10.7 mL/min/kg | CL/F [31]: 8.67 mL/min/kg | fAUC/MIC [32]: 6.6 | fAUC/MIC [33]: 5.3 | fAUC/MIC [34]: 3.6 | fAUC/MIC [35]: 3.3 | fAUC/MIC [36]: 2.6 | fAUC/MIC [37]: 1.8 | fAUC/MIC [38]: 6.6 | fAUC/MIC [39]: 5.3 | fAUC/MIC [40]: 3.6

CN[C@H](CC(C)C)C(=O)N[C@H]1C(=O)N[C@@H](CC(N)=O)C(=O)N[C@H]2C(=O)N[C@H]3C(=O)N[C@H](C(=O)N[C@H](C(=O)O)c4cc(O)cc(O)c4-c4cc3ccc4O)[C@H](O)c3ccc(c(Cl)c3)Oc3cc2cc(c3O[C@@H]2O[C@H](CO)[C@@H](O)[C@H](O)[C@H]2O[C@H]2C[C@](C)(N)[C@H](O)[C@H](C)O2)Oc2ccc(cc2Cl)[C@H]1O [VANCOMYCIN]
ED50 (Staphylococcus aureus [4]): 1.7 mg/kg/day | ED50 (Staphylococcus aureus [5]): 12 mg/kg/day | ED50 (Staphylococcus aureus [7]): 0.9 mg/kg/day | ED50 (Staphylococcus aureus [8]): 5.6 mg/kg/day | Activity (Staphylococcus aureus [41]): Active | Activity (Staphylococcus aureus [42]): inactive
